Article PMC9944328 (Nature Communications, 2023)

Assays:
SSTR2 [1] = test: Bias factor (β value), Gi cAMP inhibition versus β-arrestin recruitment; type: cell-based, human
Experimental: (§1) The levels of the intracellular 3′, 5′-cyclic AMP (cAMP) were measured by the GloSensor cAMP assay (Promega) as described in the previous studies[28],[41] which has been widely used. The human full-length SSTRs and mutants were cloned into the pcDNA3.1+ vector with a HA signal sequence followed by a Flag tag at the N-terminus. […] Cells were then co-transfected with SSTR wild-type or mutants and GloSensor plasmids. After 24 h of transfection, the cells were dissociated with TrypLE™ Express Enzyme (1X) (Thermo Fisher Scientific) and collected by centrifugation at 500 × g for 5 min. Then the collected cells were suspended in Hank’s balanced salt solution [HBSS (Thermo Fisher Scientific)] supplemented with […] potassium salt solution (YEASEN), and then the suspension cells were seeded into 96-well plates with 90 μl/well. After incubating at room temperature for 40 min, 5 μM forskolin and ligands diluted in HBSS were added to each well and the plates were incubated at room temperature for 15 min. […] signals were measured using the Synergy H1 microplate reader (BioTek) and the data presented are means of at least three independent experiments.
The NanoBiT β-arrestin 1 recruitment assays were carried out according to the method described previously. […] Human full-length SSTR wild-type and mutant vectors were C-terminally fused with a 15-amino acid flexible linker and the small fragment (SmBiT). HEK293 cells were seeded into six-well microplates at a density of 1.0 × 10^6 cells/well and cultured for 24 h at 37 °C with 5% CO2. After that, cells were co-transfected with pcDNA3.1+ vectors encoding SSTR wild-type or mutants and human β-arrestin 1. After transfecting for 24 h, the transfected cells were suspended and seeded into white 96-well plates, and then cultured at 37 °C overnight. After that the medium in each well was exchanged for 90 μl of 0.01% bovine serum albumin containing 20 μl of 50 μM coelenterazine h (Carbosynth) diluted in the HBSS assay buffer and incubated for 40 min at room temperature. Then, ligands diluted in the assay buffer was added to each well and the luminescence intensity was measured using the Synergy H1 microplate reader and detected at room temperature in a time period. All data presented are means of at least three independent experiments.
All data in this study were analyzed using GraphPad Prism 7 and were expressed as the error bars and the standard error of means ± SEM from at least n = 3 biologically independent experiments performed in triplicate. All curve data were normalized to the maximal wild-type and processed using a sigmoidal dose response curve in GraphPad Prism 7. Statistical differences between conditions were determined by one-way of variance ANOVA with Dunnett’s test or T-test.

GH3 cells = test: Cell apoptosis assay, Annexin V-FITC/PI flow cytometry, GH3 cells overexpressing SSTR2, 48 h; type: cell-based, rat
Experimental: The rat pituitary GH3 cells (ATCC, CCL-82.1) were seeded in 12-well plates at 1.5 × 10^5/well. […] Then, the cells were collected for the apoptosis assay according to the instruction of the Annexin V-FITC/PI apoptosis detection kit (BD Biosciences). Briefly, the cells were washed with cold PBS and resuspended in 1 × binding buffer. Then, 5 μl of Annexin V-FITC was added and incubated for 10 min and stained with 5 μl of PI for 5 min in the dark at room temperature. All samples were acquired by a Novocyte flow cytometer (ACEA Biosciences, China), and data were analyzed with NovoExpress^TM software.

SSTR3 mutants [2] = target: T1, SSTR3 mutants (Homo sapiens, UniProt P32745, H192T); test: SSTRs Gi-mediated cAMP inhibition, GloSensor, HEK293 (SSTR3 mutants); type: cell-based; parameters: Bottom / Top / Span / Top (best-fit): unit not given here; settings: for LogEC50 (best-fit) / Top (best-fit): cAMP inhibition, SSTR3 H192T
T1 construct: The human full-length SSTRs and mutants were cloned into the pcDNA3.1+ vector; expressed in transfected cells; host or cells: HEK293 (ATCC, CRL-1573)
Experimental: as §1

SSTR3 mutants [3] = target: SSTR3 mutants (Homo sapiens, UniProt P32745); test: as above; type: cell-based; parameters: Bottom / Top / Span / Top (best-fit): unit not given here; settings: for LogEC50 (best-fit) / Top (best-fit): cAMP inhibition, SSTR3 N101V
Experimental: as §1

SSTR2 [4] = target: SSTR2 (Homo sapiens, UniProt P30874); test: Bystander BRET endosomal trafficking (β-arrestin 1-Nluc, FYVE-mVenus), HEK293 (SSTR2 wild-type); type: cell-based; parameters: The human full-length SSTRs and mutants were cloned into the pcDNA3.1+ vector; expressed in transfected cells; host or cells: HEK293;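 also: HEK293 cells coexpressing Nluc-tagged β-arrestin 1 and mVenus-fused FYVE endosomal marker, bystander BRET ratio read after ligand addition, coelenterazine h substrate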
Experimental: Wild-type or mutant SSTR2, β-arrestin 1-Nluc and FYVE-mVenus were co-transfected in HEK293 cells at a ratio of 1:0.5:4 on six-well plates. The next day, the transfected cells were plated on white 96-well and incubated overnight, and then cells were incubated with 90 µL HBSS containing 20 mM HEPES and coelenterazine h (5 µM) at room temperature for 40 min. After incubation, ligand was added and the signal was measured using the Synergy H1 microplate reader (BioTek) to determine a BRET ratio.

[5] = Best-fit values, WT-1 (N276A set)
[6] = Best-fit values, WT-1 (P220A, I130A, F265A sets)
[7] = Best-fit values, WT-1 (R140A, Y312A sets)
[8] = Best-fit values, WT-1/-3 (W269A set), WT-2 (N276A set), WT-1 (I284A set)
[9] = Best-fit values, WT-2 (P220A, I130A, F265A sets)
[10] = Best-fit values, WT-2 (R140A, Y312A sets)
[11] = Best-fit values, WT-2 (W269A, I284A sets)
[12] = Best-fit values, WT-3 (N276A set)
[13] = best-fit, SSTR2 WT-1 (control in F294A block), run 1
[14] = best-fit, SSTR2 WT-1 (control in K291A block), run 1
[15] = best-fit, SSTR2 WT-2 (control in F294A block), run 2
[16] = best-fit, SSTR2 WT-2 (control in K291A block), run 2

Sequence of SSTR2 (Homo sapiens, UniProt P30874) (P30874 whole entry, the tested form may be a part): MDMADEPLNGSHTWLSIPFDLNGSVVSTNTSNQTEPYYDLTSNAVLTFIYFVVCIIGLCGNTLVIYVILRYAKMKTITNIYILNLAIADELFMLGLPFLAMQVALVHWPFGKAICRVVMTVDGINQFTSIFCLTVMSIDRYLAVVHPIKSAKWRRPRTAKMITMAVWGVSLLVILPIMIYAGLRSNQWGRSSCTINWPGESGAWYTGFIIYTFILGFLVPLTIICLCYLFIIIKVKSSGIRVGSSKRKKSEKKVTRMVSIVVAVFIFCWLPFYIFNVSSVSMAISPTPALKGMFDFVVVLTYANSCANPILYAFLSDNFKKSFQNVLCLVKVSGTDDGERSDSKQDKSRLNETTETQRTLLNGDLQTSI
T1 sequence (P32745 whole entry H192T): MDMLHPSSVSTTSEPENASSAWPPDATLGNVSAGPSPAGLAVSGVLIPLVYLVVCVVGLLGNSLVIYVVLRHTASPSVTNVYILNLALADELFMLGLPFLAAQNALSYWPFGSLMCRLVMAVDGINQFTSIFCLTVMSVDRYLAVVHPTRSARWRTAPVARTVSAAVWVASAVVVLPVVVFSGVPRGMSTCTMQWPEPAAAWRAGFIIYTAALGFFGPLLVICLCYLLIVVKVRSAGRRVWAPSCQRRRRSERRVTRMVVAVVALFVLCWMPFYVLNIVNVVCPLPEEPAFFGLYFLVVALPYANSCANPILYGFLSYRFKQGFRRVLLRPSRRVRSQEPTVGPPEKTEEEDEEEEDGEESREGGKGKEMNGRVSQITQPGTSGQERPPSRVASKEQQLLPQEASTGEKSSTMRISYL
Sequence of SSTR3 mutants (Homo sapiens, UniProt P32745) (P32745 whole entry N104V): as the sequence (P32745 whole entry H192T) above, with N104V, T192H counted along it

C[C@@H](O)[C@@H]1NC(=O)[C@H](CCCCN)NC(=O)[C@@H](Cc2c[nH]c3ccccc23)NC(=O)[C@H](Cc2ccccc2)NC(=O)[C@@H](NC(=O)[C@H](N)Cc2ccccc2)CSSC[C@@H](C(=O)N[C@H](CO)[C@@H](C)O)NC1=O [octreotide]
Effect of microswitch mutations (SSTR2 [1]; CWxP, PIF, DRY and NPxxY motif mutants versus wild-type SSTR2): decreased the potency of β-arrestin recruitment more markedly than the activation ability of Gi signaling
Effect of mutants on both signals (SSTR2 [1]; D122(3.32) and Q126(3.36) mutants): markedly affected both β-arrestin and Gi signal
Proapoptotic activity (GH3 cells): able to activate proapoptotic pathways
EC50 of mutant versus wild-type (SSTR3 mutants [2]; H192(45.51)T mutant of SSTR3): retained a similar EC50 as wild-type receptor
Emax (SSTR3 mutants [2]; HEK293, Suppl. Tables 4/5, SSTR3 H192(45.51)T, n=3, read-out: Emax): 92.4 ± 10.2%
LogEC50 (best-fit) (SSTR3 mutants [2]; run 1): -7.081
Top (best-fit) (SSTR3 mutants [2]; run 1): 99.15
LogEC50 (best-fit) (SSTR3 mutants [2]; run 2): -7.677
Top (best-fit) (SSTR3 mutants [2]; run 2): 107.4
LogEC50 (best-fit) (SSTR3 mutants [2]; run 3): -7.174
Top (best-fit) (SSTR3 mutants [2]; run 3): 100.5
LogEC50 (best-fit) (SSTR3 mutants [2]; run 4): -7.758
Top (best-fit) (SSTR3 mutants [2]; run 4): 101.2
Emax (SSTR3 mutants [3]; HEK293): 120 ± 3.57%
LogEC50 (best-fit) (SSTR3 mutants [3]; run 1): -8.602
Top (best-fit) (SSTR3 mutants [3]; run 1): 99.48
LogEC50 (best-fit) (SSTR3 mutants [3]; run 2): -8.875
Top (best-fit) (SSTR3 mutants [3]; run 2): 120.3
LogEC50 (best-fit) (SSTR3 mutants [3]; run 3): -8.73
Top (best-fit) (SSTR3 mutants [3]; run 3): 98.22
LogEC50 (best-fit) (SSTR3 mutants [3]; run 4): -9.386
Top (best-fit) (SSTR3 mutants [3]; run 4): 101.4
Bottom (SSTR2 [4]; [5]): -3.249
Span (SSTR2 [4]; [5]): 103
Top (SSTR2 [4]; [5]): 99.78
Bottom (SSTR2 [4]; [6]): 16.02
Span (SSTR2 [4]; [6]): 79.41
Top (SSTR2 [4]; [6]): 95.44
Bottom (SSTR2 [4]; [7]): -2.667
Span (SSTR2 [4]; [7]): 105.4
Top (SSTR2 [4]; [7]): 102.8
Span (SSTR2 [4]; Best-fit values, WT-1/-3 (W269A set), WT-2 (N276A set)): 83.76
Bottom (SSTR2 [4]; [8]): 4.545
Top (SSTR2 [4]; [8]): 88.3
Bottom (SSTR2 [4]; [9]): 0.5214
Span (SSTR2 [4]; [9]): 104.2
Top (SSTR2 [4]; [9]): 104.7
Bottom (SSTR2 [4]; [10]): -1.531
Span (SSTR2 [4]; [10]): 100.4
Top (SSTR2 [4]; [10]): 98.89
Span (SSTR2 [4]; Best-fit values, WT-2 (W269A set)): 83.11
Bottom (SSTR2 [4]; [11]): 7.543
Top (SSTR2 [4]; [11]): 90.66
Bottom (SSTR2 [4]; [12]): -1.634
Span (SSTR2 [4]; [12]): 102.4
Top (SSTR2 [4]; [12]): 100.7
Emax (SSTR2 [4]; HEK293, Bystander BRET, SSTR2-WT, n=6, read-out: Emax): 100%
Bottom (SSTR2 [4]; [13]): 14.58
Span (SSTR2 [4]; [13]): 85.75
Top (SSTR2 [4]; [13]): 100.3
Span (SSTR2 [4]; best-fit, SSTR2 WT-1 (control in I284A and K291A blocks), run 1): 83.76
Bottom (SSTR2 [4]; [14]): 4.545
Top (SSTR2 [4]; [14]): 88.3
Bottom (SSTR2 [4]; [15]): 19.75
Span (SSTR2 [4]; [15]): 76.3
Top (SSTR2 [4]; [15]): 96.05
Span (SSTR2 [4]; best-fit, SSTR2 WT-2 (control in I284A and K291A blocks), run 2): 83.11
Bottom (SSTR2 [4]; [16]): 7.543
Top (SSTR2 [4]; [16]): 90.66
Bottom (SSTR2 [4]; best-fit, SSTR2 WT-3 (control in F294A block), run 3): -1.634
